This is an account of results in patent publication US20260199505A1, “COMBINATION THERAPY COMPRISING BISPECIFIC ANTIBODIES COMPRISING AN NRP1 BINDING DOMAIN” (Pinetree Therapeutics, Inc., priority 2022, published 2026).

One assay has as its system H1975-HGF. The assay can be described thus: H1975-HGF (HGF-overexpressing) xenograft model. Type of assay: in vivo, mouse. The following applies: for tumor volume over time (FIG. 6B): second set, Osimertinib 10 mg/kg i.p. QD, Crizotinib 20 mg/kg i.p. QD, EGFR degrader 15 mg/kg i.p. QW; for tumor volume over time (FIG. 6A): first set, Panitumumab 5 mg/kg, EGFR degrader 6.87 mg/kg, Amivantamab 5.05 mg/kg i.p. BIW, Osimertinib 3 mg/kg i.p. QD. The method, then:
(§1) The H1975-HGF cell line was prepared by recombinantly engineering the H1975 cell line to express HGF by standard methods. Thus, the H1975-HGF xenograft model represents a dual activation model in which both the EGFR and cMET pathways are constitutively activated.

The subject of another assay is HGF/cMET pathway. The assay can be described thus: HGF/cMET pathway inhibition in H1975 cells. It is filed as cell-based. The following applies: data not shown. The method, then:
as §1

A further assay concerns H1975. Briefly: H1975 (Osimertinib-sensitive, parental) xenograft mouse model. It is filed as in vivo. The following applies: 3 mg/kg Osimertinib.
In a further assay the test system is H1975-OR. The assay can be described thus: Osimertinib-resistant mouse xenograft model (H1975-OR). It is filed as in vivo. The following applies: Osimertinib dose of 3 mg/kg. The source says: Panitumumab is a fully humanized anti-EGFR monoclonal antibody, which binds to EGFR and block the EGFR signaling. Osimertinib is an EGFR tyrosine kinase inhibitor.
A further assay relates to H1975-NRP1 OE. The assay can be described thus: H1975-NRP1 OE (NRP1-overexpressing) xenograft model. The following applies: 3 mg/kg Osimertinib.

Where a name gives a salt, the structure may show the parent alone.

Description for H1975-NRP1 OE: In this example, a modified version of the H1975 xenograft model was used in which the tumor cells were engineered to overexpress NRP1.

In the case of `C[C@@H](Oc1cc(-c2cnn(C3CCNCC3)c2)cnc1N)c1c(Cl)ccc(F)c1Cl` [Crizotinib], in the assay with H1975-HGF, the “tumor volume over time (FIG. 6B)” value is reported as “limited efficacy”. For the same molecule, in the assay on HGF/cMET pathway, the cMET pathway signaling entry is “blocked cMET pathway signaling”.

Take `C=CC(=O)Nc1cc(Nc2nccc(-c3cn(C)c4ccccc34)n2)c(OC)cc1N(C)CCN(C)C` [Osimertinib, N-(2-{2-dimethylaminoethyl-methylamino}-4-methoxy-5-{[4-(1-methylindol-3-yl)pyrindin-2-yl]amino}phenyl)prop-2-enamide mesylate salt]: in the assay with H1975, the tumor response result is “strong and persistent tumor regression”. In addition, in the assay on H1975-OR, the anti-tumor activity entry is given as “did not show anti-tumor activity”. Further, in the assay with H1975-HGF, the “tumor volume over time (FIG. 6A)” value is “exhibited resistance” and the “tumor volume over time (FIG. 6B)” value is reported as “did not prevent tumor growth over time”. Besides, the tumor response entry with H1975-NRP1 OE was “significant tumor progression”.

For “Panitumumab: fully humanized anti-EGFR monoclonal antibody, which binds to EGFR and block the EGFR signaling”, the “tumor volume over time (FIG. 6A)” value in the assay with H1975-HGF is given as “exhibited resistance”.

B1: Amivantamab: an EGFR×cMET bispecific antibody construct (antibody, chains of the INN, looked up, V domains shown)
VH: QVQLVESGGGVVQPGRSLRLSCAASGFTFSTYGMHWVRQAPGKGLEWVAVIWDDGSYKYYGDSVKGRFTISRDNSKNTLYLQMNSLRAEDTAVYYCARDGITMVRGVMKDYFDYWGQGTLVTVSS
VL: AIQLTQSPSSLSASVGDRVTITCRASQDISSALVWYQQKPGKAPKLLIYDASSLESGVPSRFSGSESGTDFTLTISSLQPEDFATYYCQQFNSYPLTFGGGTKVEIK
VH2: QVQLVQSGAEVKKPGASVKVSCETSGYTFTSYGISWVRQAPGHGLEWMGWISAYNGYTNYAQKLQGRVTMTTDTSTSTAYMELRSLRSDDTAVYYCARDLRGTNYFDYWGQGTLVTVSS
VL2: DIQMTQSPSSVSASVGDRVTITCRASQGISNWLAWFQHKPGKAPKLLIYAASSLLSGVPSRFSGSGSGTDFTLTISSLQPEDFATYYCQQANSFPITFGQGTRLEIK
Turning to B1, in the assay with HGF/cMET pathway, the cMET degradation entry is reported as “led to cMET degradation” and the cMET pathway signaling result is given as “blocked cMET pathway signaling”.
